Results on four compounds are retold here after patent publication US20230406849A1, “KRAS INHIBITORS FOR TREATMENT OF CANCERS” (TYLIGAND BIOSCIENCE (SHANGHAI) LIMITED, priority 2020, published 2023).

The test system of data set [1] is human non-small cell lung cancer cells NCI-H358 with KRas G12C mutation. Kind of data set: NCI-H358 cell proliferation, CellTiter-Glo Luminescent Cell Viability Assay. Type of data set: cell-based. The conditions noted are these: for inhibition at 1 µM: 1 μM compound, read-out: Inhibition rate % (1 μM). The source says: This assay verified the inhibitory activity of the compounds of the present disclosure on the proliferation of human non-small cell lung cancer cells NCI-H358 with KRas G12C mutation by using Promega's CellTiter-Glo® Luminescent Cell Viability Assay kit.
[Test materials]: NCI-H358 cell line (Cell Resource Center, IBMS, CAMS/PUMC, Item number: 3111C0001CCC000470), 96-well transparent flat-bottomed black-walled cell culture plate (Greiner Bio one, Cat #655096), RPMI-1640 Medium (GE, Cat #SH30809.01), Fetal Bovine Serum FBS (Thermo Fisher, Cat #10099-141), CellTiter-Glo® Luminescent Cell Viability Assay Kit (Promega, Cat #G7573), PBS (Solarbio, Cat #P1020), Trypsin (Thermo Fisher, Cat #25200072), DMSO (Sigma, Cat #D2650), Methyl cellulose (SIGMA, Cat #9004-67-5).
[Experimental procedure]: 180 μL of cell suspension (RPMI1640 solution with 10% FBS and 1% methyl cellulose) was charged to a 96-well cell culture plate at a density of 1500 cells/well. A control group containing no cells, no compounds and only 3D complete medium (RPMI 1640 solution with 1! Methyl cellulose and 10% FBS) (i.e. culture medium control) and a control group containing no compounds but cells (i.e. cell control) were set. AMG510 or the following reference compounds were used as positive controls. The cell plate was placed in a cell incubator overnight. A 10-fold drug solution (RPMI1640 solution with 10% FBS and 1% DMSO) was prepared at a concentration of 10 μM, and 20 μL of this solution was added to each well of the 96-well plate seeded with cells, so that the final concentration of the compounds in each well was 1 μM, and the DMSO concentration […] replicate wells were set up for each compound. The solutions of AMG510 or the following reference compounds were prepared in the same way and added to the positive control wells. The cell plate was placed in a cell incubator and cultured for 120 h. For endpoint detection, the CellTiter-Glo reagent was melted, and the cell plate was moved to room temperature to equilibrate for 30 minutes, added with 100 µL of CellTiter-Glo to each well, and shaken on an orbital shaker for 5 minutes to fully lyse the cells. The plate was kept at room temperature for 20 minutes to stabilize the luminescence signal, and the luminescence value of each well was full wavelength scanned with a multi-functional microplate reader (Molecular Devices, Spectramax M3 microplate reader).
[Test samples] The compounds of Examples 1-39, and reference compound A
[Data Analysis] The following formula was used to calculate the cell inhibition rate under the action of each concentration of the compounds:
Inhibition rate %=[1−(LumDrug to be tested−LumCulture medium control)/(LumCell control−LUMCulture medium control)]×100%
IC50 values were calculated using GraphPad Prism 7.0 software, nonlinear Sigmoidal regression was used to fit the data to obtain a dose-response curve.

The nature of data set [2]: Cassette pharmacokinetic experiment in rats (IV). The data set is classed as in vivo. The conditions noted are these: rat, plasma, 1 mg/kg, male SD rats, tail vein IV, 1 mg/mL each compound at 1 mL/kg. The source says: 2.1 Pharmacokinetic Properties of Some Compounds of the Present Disclosure Evaluated by Cassette Pharmacokinetic Experiments in Rats.
[Test materials]: Male SD rats, age: 6-8 weeks, body weight 220-250 g, purchased from Zhaoyan (Suzhou) New Drug Research Center Co., Ltd.; Tolbutamide (Aladdin, Cat #H1401054); Sulfobutyl-(Captisol, Shandong Binzhou Zhiyuan Biological Technology Co., Ltd, Cat #20191013); Propylene glycol (15)-stearate (Solutol, Meilun Bio, Cat #50206A); DMSO (Vetec Company, Cat #WXBD0293V); acetonitrile (Sigma-Aldrich, Cat #WXBD1744V); Methanol (Sigma-Aldrich, Cat #WXBD2831V).
[Experimental procedure]: The compound combination was prepared in a solvent of 5% DMSO/10% Solutol/85% (20% Captisol), and the final concentration of each compound was 1 mg/mL. The SD rats were treated with the compound preparation in 1 mL/kg by tail vein IV injection, and blood samples were collected at the time points of 5 min, 15 min, 30 min, 1 h, 2 h, 4 h, 8 h, and 24 h via external jugular vein puncture, centrifuged at low temperature for 20 minutes to collect plasma samples, which were stored at −80° C. until analysis.
[Sample analysis]: Establishing LC-MS/MS compound analysis method
Standard curve preparation: 20 μL of lmg/mL DMSO stock solution for each compound was aspirated and transferred to […] of 50% methanol working solution, and the resulting solution was serially diluted to obtain a standard curve working solution with concentrations of 20000, 10000, 5000, 1000, 500, 100, 50, 20 and […]. Then 5 µL of this standard curve working solution was mixed with 45 μL rat blank plasma to give a standard curve with concentrations of 2000, 1000, 500, 100, 50, 10, 2 and 1 ng/mL for quantification of unknown samples.
Sample pretreatment: 50 μL of unknown plasma sample or standard curve sample was mixed with 250 μL of acetonitrile containing internal standard as a precipitant. The plasma protein was precipitated, extracted for test compounds, and centrifuged at low temperature for 20 minutes. The supernatant was taken, mixed with 0.1% formic acid aqueous solution, and 5 μL of the resulting solution was aspirated for blood concentration analysis.
[Data processing]: A standard curve was plotted using mass spectrometry software, to quantify unknown samples, and pharmacokinetic parameters are calculated by Winnonlin 8.2 using the drug concentration of unknown samples at each time point.

The subject of data set [3] is human non-small cell lung cancer NCI-H358 xenograft. Kind of data set: Antitumor activity in NCI-H358 xenograft mouse model. As to conditions: for TGI(%) / Tumor volume (mm^3) (day 14): NPSG mice, gavage once daily 10 mg/kg, day 14. The data set is classed as in vivo, NPSG mice. On the procedure: Tumor growth inhibitory activity of the compounds of the present disclosure was evaluated and verified in a human non-small cell lung cancer NCI-H358 xenograft mouse model.
[Test materials]: NCI-H358 cell line carrying KRAS G12C mutation, provided by KYinno Biotechnology Co., Ltd. (from ATCC, Cat #CRL-5807). NPSG mice, female, provided by Beijing Phenotek Biotechnologies Inc.
[Experimental procedure]: 5×10^6 NCI-H358 cells (containing 50% Matrigel) were inoculated subcutaneously on the right flank of 6-8 weeks old female NPSG mice, with the inoculation volume of 0.1 mL. When the average tumor size reached 160-220 mm^3, the mice were grouped randomly according to tumor size and body weight, upon which the mice were treated with compounds on the same day designated as Day 0. The mice were gavage administrated once daily at 10 mg/kg or solvent control (50 mM citrate buffer containing 10% cyclodextrin, pH5.0). Tumor volume and body weight were measured twice a week during the study. The tumor volume was calculated by the formula V=D×d×d/2, wherein D and d refer to the long and short diameter of the tumor respectively.
In addition, using the same materials and procedures as above, the tumor inhibition activity of Example 9 at different doses in the above-mentioned non-small cell lung cancer mouse model and its effect on body weight were also investigated.

Structures are written as SMILES. Read-outs that look alike come from different tables or passages of the source.

For `C=CC(=O)N1CCN(c2c(C#N)cnc3c(F)c(-c4ccc(F)c5sc(N)nc45)c(Cl)cc23)CC1` [Example 9, 4-(4-Acryloylpiperazin-1-yl)-7-(2-amino-7-fluorobenzo[d]thiazol-4-yl)-6-chloro-8-fluoroquinoline-3-carbonitrile], in data set [1] (120 h), the inhibition at 1 µM was 98.8%. In data set [1] (120 h, read-out: IC50), the IC50 was determined as 0.0086 µM. Further, the IC50 in data set [1] (read-out: IC50 value) is less than 0.02 µM. In addition, in data set [2], the area under the curve AUC(0-t) is 1.05 µg·h/mL, the clearance is 0.948 L/h/kg and the half-life is 40.2 min. In data set [3] (different doses, FIG. 1), the “effect on body weight” value is recorded as “without significant side effects on body weight” and the tumor inhibition activity result was “excellent tumor inhibition activity”.

As for `C=CC(=O)N1CCN(c2ncnc3c(F)c(-c4ccc(F)c5sc(N)nc45)c(Cl)cc23)CC1` [Ref. Comp. A, reference compound], in data set [1] (120 h), the inhibition at 1 µM was 96.9%. The IC50 in data set [1] (120 h, read-out: IC50) turned out to be 0.011 µM. Moreover, in data set [2], the AUC(0-t) is 0.623 µg·h/mL, the clearance was found to be 1.63 L/h/kg and the half-life is 60 min.

Consider `C=CC(=O)N1CCN(c2c(C#N)cnc3c(F)c(-c4ccc(F)c5sc(N)nc45)c(Cl)cc23)C[C@H]1C` [Example 8, 4-((R)-4-acryloyl-3-methylpiperazin-1-yl)-7-(2-amino-7-fluorobenzo[d]thiazol-4-yl)-6-chloro-8-fluoroquinoline-3-carbonitrile], for which the inhibition at 1 µM in data set [1] (120 h) was 94%. Besides, the IC50 in data set [1] (120 h, read-out: IC50) was 0.018 µM; in data set [1] (read-out: IC50 value) it was less than 0.02 µM. Besides, in data set [3], the “TGI(%)” value turned out to be 67%. Besides, the “Tumor volume (mm^3) (day 14)” value in data set [3] is given as 519.2 mm^3.

Turning to `C=CC(=O)N1CCN(c2nc(=O)n(-c3c(C)ccnc3C(C)C)c3nc(-c4c(O)cccc4F)c(F)cc23)[C@@H](C)C1` (atropisomer, axis not shown) [AMG510, reference compound], in data set [2], the AUC(0-t) is 0.231 µg·h/mL, the clearance is 4.31 L/h/kg and the half-life is 29.4 min. Further, in data set [3], the “TGI(%)” value was 66% and the “Tumor volume (mm^3) (day 14)” value is 525.1 mm^3.

A word on the inhibition: it is the relative decrease from the control value, in per cent. The IC50 is the concentration at which inhibition is half-maximal. What is called AUC(0-t) is exposure summed from dosing to a finite time, without extrapolation to infinity. One may read the clearance as a measure of how efficiently the substance is removed, as volume per time. The term half-life denotes the time in which the quantity being followed falls by half.
